Source: ChEMBL document CHEMBL5053557, “Discovery of Novel Dual-Target Inhibitor of Bromodomain-Containing Protein 4/Casein Kinase 2 Inducing Apoptosis and Autophagy-Associated Cell Death for Triple-Negative Breast Cancer Therapy” (J Med Chem, 2021)
The source made the active and inactive calls. No cut-off for these calls is given here.

Legend:
[1] = target: Bromodomain testis-specific protein (Homo sapiens, UniProt Q58F21); experiment: Inhibition of BRDT BD2 (unknown origin) incubated for 2 hrs by TR-FRET assay
MDA-MB-231 [2] = experiment: Antiproliferative activity against JQ-1 resistant human MDA-MB-231 cells incubated for 24 hrs by MTT assay; assay type: functional, cell-based
Mus musculus [3] = experiment: Toxicity in nude BALB/c mouse xenografted with human MDA-MB-468 cells assessed as morphological changes in liver at 25 to 50 mg/kg, po administered once daily for 19 days and measured every 3 days by H and E staining based assay; assay type: organism-based; settings: in vivo, 456 h, dose 25-50 mg/kg, time 19 day
MDA-MB-231 [4] = experiment: Inhibition of colony formation in human MDA-MB-231 cells at 5 uM after 7 days in presence of 3-MA by crystal violet staining based assay; assay type: functional, cell-based; settings: time 7.0 day
Mus musculus [5] = experiment: Toxicity in nude BALB/c mouse xenografted with human MDA-MB-468 cells assessed as mortality at 25 to 50 mg/kg, po administered once daily for 19 days and measured every 3 days; assay type: organism-based; settings: in vivo, 456 h, dose 25-50 mg/kg, time 19 day
Mus musculus [6] = experiment: Toxicity in nude BALB/c mouse xenografted with human MDA-MB-468 cells assessed as morphological changes in lung at 25 to 50 mg/kg, po administered once daily for 19 days and measured every 3 days by H and E staining based assay; assay type: organism-based; settings: in vivo, 456 h, dose 25-50 mg/kg, time 19 day
Mus musculus [7] = experiment: Toxicity in nude BALB/c mouse xenografted with human MDA-MB-468 cells assessed as morphological changes in heart at 25 to 50 mg/kg, po administered once daily for 19 days and measured every 3 days by H and E staining based assay; assay type: organism-based; settings: in vivo, 456 h, dose 25-50 mg/kg, time 19 day
MDA-MB-231 [8] = experiment: Induction of apoptosis in human MDA-MB-231 cells at 5 uM preincubated with 3-MA for 1 hr followed by compound addition and measured after 24 hrs by Annexin V-FITC/propidium iodide staining based flow cytometric analysis; assay type: functional, cell-based
[9] = AUC(0 to t) in Sprague-Dawley rat at 1 mg/kg, iv by LC-MS analysis; assay type: ADME, organism-based; parameters: dose 1 mg/kg, route iv; settings: in vivo
MDA-MB-468 [10] = experiment: Induction of autophagy in human MDA-MB-468 cells harboring GFP-mRFP-LC3 assessed as up regulation of LC3II level at 2.5 to 10 uM after 24 hrs by Western blot analysis; assay type: functional, cell-based; settings: dose 2.5-10 µM
[11] = Oral bioavailability in Sprague-Dawley rat at 10 mg/kg by LC-MS analysis; assay type: ADME, organism-based; settings: in vivo
MDA-MB-231 [12] = experiment: Induction of apoptosis in human MDA-MB-231 cells assessed as up regulation of cleaved caspase 3 after 24 hrs by Western blot analysis; assay type: functional, cell-based; settings: dose 2.5-10 µM
Mus musculus [13] = experiment: Toxicity in nude BALB/c mouse xenografted with human MDA-MB-468 cells assessed as morphological changes in kidney at 25 to 50 mg/kg, po administered once daily for 19 days and measured every 3 days by H and E staining based assay; assay type: organism-based; settings: in vivo, 456 h, dose 25-50 mg/kg, time 19 day
MDA-MB-231 [14] = experiment: Induction of apoptosis in human MDA-MB-231 cells assessed as up regulation of Bax after 24 hrs by Western blot analysis; assay type: functional, cell-based; settings: dose 2.5-10 µM
[15] = target: T1, Bromodomain-containing protein 2 (Homo sapiens, UniProt P25440); experiment: Inhibition of BRD2 BD1 (unknown origin) incubated for 2 hrs by TR-FRET assay
T1 sequence (P25440 whole entry): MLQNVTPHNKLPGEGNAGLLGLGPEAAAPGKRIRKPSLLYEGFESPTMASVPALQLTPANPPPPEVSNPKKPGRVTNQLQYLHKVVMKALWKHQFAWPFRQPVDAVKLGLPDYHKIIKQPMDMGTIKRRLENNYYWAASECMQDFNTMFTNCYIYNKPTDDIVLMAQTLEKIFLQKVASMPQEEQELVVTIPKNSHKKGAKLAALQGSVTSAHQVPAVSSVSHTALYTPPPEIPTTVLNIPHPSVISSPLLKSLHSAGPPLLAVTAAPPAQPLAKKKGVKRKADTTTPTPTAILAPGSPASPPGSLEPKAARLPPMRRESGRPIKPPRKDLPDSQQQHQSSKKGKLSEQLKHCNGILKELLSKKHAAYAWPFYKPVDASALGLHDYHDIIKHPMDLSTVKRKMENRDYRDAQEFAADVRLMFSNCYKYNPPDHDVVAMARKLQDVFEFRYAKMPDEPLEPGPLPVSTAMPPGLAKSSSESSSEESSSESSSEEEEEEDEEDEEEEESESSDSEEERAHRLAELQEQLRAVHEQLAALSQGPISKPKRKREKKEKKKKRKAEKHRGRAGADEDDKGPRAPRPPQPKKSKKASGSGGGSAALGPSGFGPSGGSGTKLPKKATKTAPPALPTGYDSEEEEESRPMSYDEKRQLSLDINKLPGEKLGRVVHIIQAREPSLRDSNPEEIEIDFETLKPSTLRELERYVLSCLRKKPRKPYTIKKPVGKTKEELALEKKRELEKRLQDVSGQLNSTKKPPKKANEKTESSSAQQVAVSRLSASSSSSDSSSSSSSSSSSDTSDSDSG

MCF-10A = experiment: Antiproliferative activity against human MCF-10A cells incubated for 24 hrs by MTT assay; assay type: cell-based
[16] = target: Bromodomain-containing protein 3 (Homo sapiens, UniProt Q15059); experiment: Inhibition of BRD3 BD2 (unknown origin) incubated for 2 hrs by TR-FRET assay
Sequence of Bromodomain-containing protein 3 (Q15059 whole entry): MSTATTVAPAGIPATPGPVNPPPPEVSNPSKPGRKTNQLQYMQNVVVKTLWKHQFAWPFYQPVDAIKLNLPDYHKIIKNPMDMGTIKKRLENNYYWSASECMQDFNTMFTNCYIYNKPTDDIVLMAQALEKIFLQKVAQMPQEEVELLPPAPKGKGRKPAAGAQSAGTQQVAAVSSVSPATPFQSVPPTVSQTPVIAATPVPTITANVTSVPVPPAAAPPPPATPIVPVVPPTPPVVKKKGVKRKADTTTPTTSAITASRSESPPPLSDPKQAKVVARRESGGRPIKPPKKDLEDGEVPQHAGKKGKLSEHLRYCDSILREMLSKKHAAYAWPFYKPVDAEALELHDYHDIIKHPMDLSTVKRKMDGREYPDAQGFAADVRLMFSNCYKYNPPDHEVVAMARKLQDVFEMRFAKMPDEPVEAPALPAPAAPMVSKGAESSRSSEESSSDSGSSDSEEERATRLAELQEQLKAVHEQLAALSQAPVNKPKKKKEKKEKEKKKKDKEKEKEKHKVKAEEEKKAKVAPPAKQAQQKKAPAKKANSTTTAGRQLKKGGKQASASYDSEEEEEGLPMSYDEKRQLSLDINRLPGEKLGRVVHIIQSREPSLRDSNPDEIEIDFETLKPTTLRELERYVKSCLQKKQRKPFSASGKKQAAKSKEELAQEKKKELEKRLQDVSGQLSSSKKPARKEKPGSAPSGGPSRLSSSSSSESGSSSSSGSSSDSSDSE

MDA-MB-231 [17] = experiment: Induction of autophagy in human MDA-MB-231 cells harboring GFP-mRFP-LC3 assessed as autophagic flux at 5 uM after 24 hrs by fluorescence microscopic analysis; assay type: functional, cell-based
Mus musculus [18] = experiment: Toxicity in nude BALB/c mouse xenografted with human MDA-MB-468 cells assessed as morphological changes in spleen at 25 to 50 mg/kg, po administered once daily for 19 days and measured every 3 days by H and E staining based assay; assay type: organism-based; settings: in vivo, 456 h, dose 25-50 mg/kg, time 19 day
Mus musculus [19] = experiment: Toxicity in nude BALB/c mouse xenografted with human MDA-MB-231 cells assessed as morphological changes in heart at 25 to 50 mg/kg, po administered once daily for 19 days and measured every 3 days by H and E staining based assay; assay type: organism-based; settings: in vivo, 456 h, dose 25-50 mg/kg, time 19 day
MDA-MB-231 [20] = experiment: Inhibition of colony formation in human MDA-MB-231 cells after 7 days by crystal violet staining based assay; assay type: functional, cell-based; settings: dose 2.5-10 µM, time 7.0 day
MDA-MB-231 [21] = experiment: Induction of apoptosis in human MDA-MB-231 cells assessed as down regulation of Bcl2 after 24 hrs by Western blot analysis; assay type: functional, cell-based; settings: dose 2.5-10 µM
[22] = AUC(0 to t) in Sprague-Dawley rat at 10 mg/kg, po by LC-MS analysis; assay type: ADME, organism-based; parameters: dose 10 mg/kg, route po; settings: in vivo
MDA-MB-468 [23] = experiment: Induction of apoptosis in human MDA-MB-468 cells assessed as down regulation of Bcl2 after 24 hrs by Western blot analysis; assay type: functional, cell-based; settings: dose 2.5-10 µM
Mus musculus [24] = experiment: Down regulation of phosphorylation of AKT at S129 residue expression in BALB/c SCID mouse xenogrfted with human MDA-MB-231 cells at 25 to 50 mg/kg, po administered once daily for 19 days by Western blot analysis; assay type: functional, organism-based; settings: dose lower […], dose upper 50.0 mg/kg, time 19.0 day
[25] = AUC(0 to infinity) in Sprague-Dawley rat at 1 mg/kg, iv by LC-MS analysis; assay type: ADME, organism-based; parameters: time infinity, dose 1 mg/kg, route iv; settings: in vivo
[26] = target: T1, Bromodomain-containing protein 2; experiment: Inhibition of BRD2 BD2 (unknown origin) incubated for 2 hrs by TR-FRET assay
MDA-MB-468 [27] = experiment: Induction of apoptosis in human MDA-MB-468 cells assessed as up regulation of cleaved caspase 3 after 24 hrs by Western blot analysis; assay type: functional, cell-based; settings: dose 2.5-10 µM
MDA-MB-468 [28] = experiment: Induction of apoptosis in human MDA-MB-468 cells assessed as up regulation of Bax after 24 hrs by Western blot analysis; assay type: functional, cell-based; settings: dose 2.5-10 µM
MDA-MB-231 [29] = experiment: Antitumor activity against human MDA-MB-231 cells xenografted in nude BALB/c mouse assessed as tumor growth inhibition at 50 mg/kg, po administered once daily for 19 days and measured every 3 days; assay type: functional; settings: MDA-MB-231, 456 h, time 19 day, read-out: TGI
MDA-MB-231 [30] = experiment: Antitumor activity against human MDA-MB-231 cells xenografted in po dosed nude BALB/c mouse assessed as tumor growth inhibition administered once daily for 19 days and measured every 3 days; assay type: functional, organism-based; settings: dose lower […], dose upper 50.0 mg/kg, time 19.0 day
[31] = target: Casein kinase II subunit alpha (Homo sapiens, UniProt P68400); experiment: Inhibition of CK2 (unknown origin)
Sequence of Casein kinase II subunit alpha (P68400 whole entry): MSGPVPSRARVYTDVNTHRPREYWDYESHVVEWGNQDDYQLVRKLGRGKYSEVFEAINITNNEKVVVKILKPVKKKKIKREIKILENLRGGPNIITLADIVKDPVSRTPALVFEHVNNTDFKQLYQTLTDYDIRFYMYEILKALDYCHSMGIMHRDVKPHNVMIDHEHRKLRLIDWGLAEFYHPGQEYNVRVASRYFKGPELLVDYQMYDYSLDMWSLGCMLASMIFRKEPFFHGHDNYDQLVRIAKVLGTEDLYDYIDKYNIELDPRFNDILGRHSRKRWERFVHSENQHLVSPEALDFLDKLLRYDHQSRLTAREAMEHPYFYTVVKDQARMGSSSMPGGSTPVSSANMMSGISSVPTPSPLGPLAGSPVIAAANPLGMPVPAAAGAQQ

Mus musculus [32] = experiment: Down regulation of c-Myc expression in BALB/c SCID mouse xenogrfted with human MDA-MB-231 cells at 25 to 50 mg/kg, po administered once daily for 19 days by immunohistochemistry analysis; assay type: functional, organism-based; settings: dose lower […], dose upper 50.0 mg/kg, time 19.0 day
MDA-MB-231 [33] = experiment: Induction of autophagy in human MDA-MB-231 cells harboring GFP-mRFP-LC3 assessed as up regulation of LC3II level at 2.5 to 10 uM after 24 hrs by Western blot analysis; assay type: functional, cell-based; settings: dose 2.5-10 µM
MDA-MB-231 [34] = experiment: Antitumor activity against human MDA-MB-231 cells xenografted in nude BALB/c mouse assessed as tumor growth inhibition at 25 to 50 mg/kg, po administered once daily for 19 days and measured every 3 days by Ki-67 staining based immunohistochemical analysis; assay type: functional, organism-based; settings: dose lower […], dose upper 50.0 mg/kg, time 19.0 day

**Q.** Which results are given for `COc1cc(OC)c2c(=O)[nH]c(-c3ccc(OCC(=O)Nc4ccc(N5CCN(C)CC5)c(Cl)c4)cc3)nc2c1`?
**A.** IC50 [1]: > 10 µM; Activity (MDA-MB-231 [2]): Active; Activity (Mus musculus [3]): Non-Toxic; inhibition (MDA-MB-231 [4]): inactive; Activity (Mus musculus [5]): Non-Toxic; Activity (Mus musculus [6]): Non-Toxic; Activity (Mus musculus [7]): Non-Toxic; Activity (MDA-MB-231 [8]): inactive; AUC(0-t) [9]: 579 ng·h/mL; Activity (MDA-MB-468 [10]): Active; F [11]: 32.5%; Activity (MDA-MB-231 [12]): Dose-dependent effect; Activity (Mus musculus [13]): Non-Toxic; Activity (MDA-MB-231 [14]): Dose-dependent effect; IC50 [15]: > 10 µM; Activity (MCF-10A): Non-Toxic; IC50 [16]: > 10 µM; Activity (MDA-MB-231 [17]): Active; Activity (Mus musculus [18]): Non-Toxic; Activity (Mus musculus [19]): Non-Toxic; inhibition (MDA-MB-231 [20]): Dose-dependent effect; Activity (MDA-MB-231 [21]): Dose-dependent effect; AUC(0-t) [22]: 2080 ng·h/mL; Activity (MDA-MB-468 [23]): Dose-dependent effect; Activity (Mus musculus [24]): Active; AUC [25]: 588 ng·h/mL; IC50 [26]: 8.7 µM; Activity (MDA-MB-468 [27]): Dose-dependent effect; Activity (MDA-MB-468 [28]): Dose-dependent effect; inhibition in vivo at 50 mg/kg (MDA-MB-231 [29]): 63.8%; Activity (MDA-MB-231 [30]): Active; IC50 [31]: 0.23 µM; Activity (Mus musculus [32]): Active; Activity (MDA-MB-231 [33]): Active; Activity (MDA-MB-231 [34]): Active
